The target in experiment [1] is T1, HIF-2α HIS TAG-PASB Domain (Homo sapiens, UniProt Q99814).
T1 construct: 100 nM HIF-2α HIS TAG-PASB Domain
The experiment is described as follows: HIF-2α Scintillation Proximity Assay (SPA). Format: binding. The settings on record: 100 nM HIF-2α HIS TAG-PASB Domain. The essentials:
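IC50 values rest on percent inhibition, where the sample signal is scaled between high and low controls. Wells contain about 100 μL: compound dispensed as 2 μL of DMSO solution, 88 μL protein-probe mix and 10 μL of beads.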

The test system of experiment [2] is 786-O-Hif-Luc cells. The experiment in a line: Luciferase Assay. The class given is cell-based. The settings on record: read-out: Luciferase EC50. Here is the method:
A pool of infected cells were then selected against 2 μg/mL of puromycin (P8833, Sigma) for 10 days followed by limited dilution to select single clones.
Each concentration was tested in triplicate. After about 24 hours, luciferase activity was determined using ONE-Glo Luciferase Assay Reagent (E6110, Promega) following the manufacturer's recommended procedure. EC50 were calculated by using Dotmatics software.

The mark [3] stands for this setting: 150 nM Compound 211 probe, read-out: SPA IC50.
Where [4] appears, read: 24 h, 786-O-Hif-Luc cells, about 24 hours.
Setting [5] is: SPA IC50, 150 nM Compound 211 probe.

Read-outs that look alike come from different tables or passages of the source.

T1 sequence (Q99814 240-350 limits assumed): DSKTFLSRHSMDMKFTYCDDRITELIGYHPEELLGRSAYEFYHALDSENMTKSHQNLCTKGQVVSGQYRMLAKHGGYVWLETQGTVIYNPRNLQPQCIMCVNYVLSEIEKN

In the case of `CS(=N)(=O)c1ccc(Oc2cc(F)cc(F)c2)c2c1[C@H](O)C(F)(F)C2` (stereo partly drawn) [Compound 10, ((S)-7-(3,5-Difluorophenoxy)-2,2-difluoro-3-hydroxy-2,3-dihydro-1H-inden-4-yl)(imino)(methyl)-λ^6-sulfanone], the IC50 in experiment [1] (setting [3]) is 177 nM. Besides, the EC50 in experiment [2] (setting [4]) worked out at 277 nM.

Consider `Cc1cncc(Oc2ccc(S(C)(=O)=O)c3c2CC(F)(F)[C@H]3O)n1` [Compound 11, (S)-2,2-Difluoro-4-((6-methylpyrazin-2-yl)oxy)-7-(methylsulfonyl)-2,3-dihydro-1H-inden-1-ol], for which the IC50 in experiment [1] (setting [3]) is less than 5 nM. The concentration for a half-maximal effect (EC50) in experiment [2] (setting [4]) was determined as 13500 nM.

On to `Cc1cc(Oc2cc(F)cc(C#N)c2)c2c(c1S(C)(=O)=O)C(O)C(F)(F)C2` (stereo not shown) [Compound 12, 3-((2,2-Difluoro-1-hydroxy-6-methyl-7-(methylsulfonyl)-2,3-dihydro-1H-inden-4-yl)oxy)-5-fluorobenzonitrile], for which the IC50 in experiment [1] (setting [3]) came out at 800 nM. The EC50 in experiment [2] (setting [4]) came out at 775 nM.

For the compound `O=S(=O)(CF)c1ccc(Oc2cccc3sccc23)c2c1C(O)C(F)(F)C2` (stereo not shown) [Compound 22, 4-(Benzo[b]thiophen-4-yloxy)-2,2-difluoro-7-((fluoromethyl)sulfonyl)-2,3-dihydro-1H-inden-1-ol], the concentration for half-maximal inhibition (IC50) in experiment [1] (setting [3]) amounted to 230 nM. For the same compound, in experiment [2] (setting [4]), the EC50 amounted to 512 nM.

With `N#Cc1cncc(Oc2ccc(S(N)(=O)=O)c3c2CC(F)(F)[C@H]3O)c1` [Compound 25, (S)-7-((5-Cyanopyridin-3-yl)oxy)-2,2-difluoro-3-hydroxy-2,3-dihydro-1H-indene-4-sulfonamide], the half-inhibitory concentration (IC50) in experiment [1] (setting [3]) was 17600 nM. Further, the EC50 in experiment [2] (setting [4]) worked out at 1100 nM.

On to `O=S(=O)(c1ccc(Oc2cc(Cl)c[n+]([O-])c2)c2c1[C@H](O)C(F)(F)C2)C(F)(F)F` [Compound 28, (S)-3-Chloro-5-((2,2-difluoro-1-hydroxy-7-((trifluoromethyl)sulfonyl)-2,3-dihydro-1H-inden-4-yl)oxy)pyridine 1-oxide], for which, in experiment [1] (setting [3]), the IC50 worked out at 66 nM. Also, the EC50 in experiment [2] (setting [4]) came to 173 nM.

Regarding `N#Cc1cc(F)cc(Oc2ccc(S(=O)(=O)C(F)(F)F)c3c2CC(F)C3N)c1` (stereo not shown) [Compound 32, 3-((1-amino-2-fluoro-7-((trifluoromethyl)sulfonyl)-2,3-dihydro-1H-inden-4-yl)oxy)-5-fluorobenzonitrile], the concentration for half-maximal inhibition (IC50) in experiment [1] (setting [3]) was 3510 nM. Besides, the half-maximal effective concentration (EC50) in experiment [2] (setting [4]) was 2450 nM.

As to `CS(=O)(=O)c1ccc(Oc2cc(F)cc(C#N)c2)c2c1C(=O)C(F)(Cl)C2` (stereo not shown) [Compound 33, 3-((2-chloro-2-fluoro-7-(methylsulfonyl)-1-oxo-2,3-dihydro-1H-inden-4-yl)oxy)-5-fluorobenzonitrile], the concentration for half-maximal inhibition (IC50) in experiment [1] (setting [3]) came to 310 nM. Further, in experiment [2] (setting [4]), the EC50 stood at 19400 nM.

Consider `CS(=O)(=O)c1ccc(Oc2cc(F)cc(C#N)c2)c2c1[C@H](O)C(F)(Cl)C2` (stereo partly drawn) [Compound 34, 3-(((1S)-2-chloro-2-fluoro-1-hydroxy-7-(methylsulfonyl)-2,3-dihydro-1H-inden-4-yl)oxy)-5-fluorobenzonitrile], for which the half-maximal inhibitory concentration (IC50) in experiment [1] (setting [3]) was determined as 97 nM. Also, the EC50 in experiment [2] (setting [4]) turned out to be 100 nM.

Take `C[S+]([O-])c1ccc(Oc2cc(F)cc(C#N)c2)c2c1[C@H](O)C(F)(F)C2` (stereo partly drawn) [Compound 36, 3-[(1S)-2,2-Difluoro-1-hydroxy-7-methylsulfinyl-indan-4-yl]oxy-5-fluoro-benzonitrile]: the half-maximal inhibitory concentration (IC50) in experiment [1] (setting [3]) worked out at 2000 nM. Further, the EC50 in experiment [2] (setting [4]) was 2280 nM.

In the case of `N#Cc1cc(F)cc(Oc2ccc(S(=O)(=O)C(F)(F)F)c3c2CC(F)(F)[C@H]3NCCO)c1` [Compound 55, 3-[(1S)-2,2-difluoro-1-(2-hydroxyethylamino)-7-(trifluoromethylsulfonyl)indan-4-yl]oxy-5-fluoro-benzonitrile], the 50% inhibitory concentration (IC50) in experiment [1] (setting [3]) is 4900 nM. The concentration for a half-maximal effect (EC50) in experiment [2] (setting [4]) came to 3100 nM.

In the case of `CS(=O)(=O)c1ccc(Oc2cc(F)cc(C#N)c2)c2c1[C@H](O)C(F)(F)[C@H]2F` [Compound 57, 3-fluoro-5-[(1S,3S)-2,2,3-trifluoro-1-hydroxy-7-methylsulfonyl-indan-4-yl]oxy-benzonitrile], the 50% inhibitory concentration (IC50) in experiment [1] (setting [3]) turned out to be 720 nM. For the same compound, the concentration for a half-maximal effect (EC50) in experiment [2] (24 h) is 779 nM.

Regarding `CS(=O)(=O)c1ccc(Oc2cc(F)cc(C#N)c2)c2c1[C@H](O)C[C@@H]2F` [Compound 59, 3-fluoro-5-[(1R,3S)-3-fluoro-1-hydroxy-7-methylsulfonyl-indan-4-yl]oxy-benzonitrile], the IC50 in experiment [1] (setting [3]) came out at 230 nM. Also, the half-maximal effective concentration (EC50) in experiment [2] (setting [4]) was 390 nM.

Turning to `CS(=O)(=O)c1ccc(Oc2cc(F)cc(C#N)c2)c2c1[C@H](O)[C@H](F)[C@@H]2O` [Compound 60, 3-fluoro-5-[(1S,2R,3R)-2-fluoro-1,3-dihydroxy-7-methylsulfonyl-indan-4-yl]oxy-benzonitrile], in experiment [1] (setting [3]), the half-inhibitory concentration (IC50) worked out at 1340 nM. In experiment [2] (setting [4]), the concentration for a half-maximal effect (EC50) was found to be 1320 nM.

For the compound `C[C@@]1(F)Cc2c(Oc3cc(F)cc(C#N)c3)ccc(S(C)(=O)=O)c2[C@@H]1O` [Compound 64, 3-fluoro-5-(((1S,2R)-2-fluoro-1-hydroxy-2-methyl-7-(methylsulfonyl)-2,3-dihydro-1H-inden-4-yl)oxy)benzonitrile], the concentration for half-maximal inhibition (IC50) in experiment [1] (setting [3]) stood at 2030 nM. Further, in experiment [2] (setting [4]), the EC50 was determined as 2830 nM.

In the case of `C[C@@H]1Cc2c(Oc3cc(F)cc(C#N)c3)ccc(S(C)(=O)=O)c2[C@@H]1O` [Compound 65, 3-fluoro-5-(((1R,2R)-1-hydroxy-2-methyl-7-(methylsulfonyl)-2,3-dihydro-1H-inden-4-yl)oxy)benzonitrile], the half-inhibitory concentration (IC50) in experiment [1] (setting [3]) was 1850 nM. Moreover, the EC50 in experiment [2] (setting [4]) turned out to be 2100 nM.

In the case of `CS(=O)(=O)c1ccc(Oc2cc(F)cc(C#N)c2)c2c1[C@H](O)C(F)(F)[C@@H]2O` [Compound 76, 3-[(1S,3R)-2,2-difluoro-1,3-dihydroxy-7-methylsulfonyl-indan-4-yl]oxy-5-fluoro-benzonitrile], the IC50 in experiment [1] (setting [3]) worked out at 150 nM. In experiment [2] (setting [4]), the EC50 came out at 631 nM.

As to `CS(=O)(=O)c1ccc(Oc2cncc(C#N)c2)c2c1[C@H](O)[C@H](F)C2` [Compound 77, 5-(((1S,2R)-2-fluoro-1-hydroxy-7-(methylsulfonyl)-2,3-dihydro-1H-inden-4-yl)oxy)nicotinonitrile], the IC50 in experiment [1] (setting [3]) stood at 1800 nM. Besides, the concentration giving a half-maximal response (EC50) in experiment [2] (setting [4]) was found to be 1070 nM.

With `CS(=O)(=O)c1ccc(Oc2cncc(Br)c2)c2c1[C@H](O)C(F)(F)C2` [Compound 88, (S)-4-((5-Bromopyridin-3-yl)oxy)-2,2-difluoro-7-(methylsulfonyl)-2,3-dihydro-1H-inden-1-ol], the half-maximal inhibitory concentration (IC50) in experiment [1] (setting [3]) was 54 nM. For the same compound, the EC50 in experiment [2] (setting [4]) was 475 nM.

In the case of `N#Cc1cc(F)cc(Oc2ccc(S(N)(=O)=O)c3c2C[C@@H](F)[C@H]3O)c1` [Compound 98, (2R,3S)-7-(3-cyano-5-fluoro-phenoxy)-2-fluoro-3-hydroxy-indane-4-sulfonamide], in experiment [1] (setting [3]), the IC50 amounted to 73 nM. In addition, the concentration giving a half-maximal response (EC50) in experiment [2] (setting [4]) amounted to 224 nM.

In the case of `CS(=O)(=O)c1ccc(Oc2cc(F)cc(C#N)c2)c2c1[C@H](N)C(F)(F)[C@@H]2F` [Compound 110], the IC50 in experiment [1] (setting [3]) is 510 nM. Moreover, the EC50 in experiment [2] (setting [4]) stood at 1650 nM.

Consider `N#Cc1c(Oc2cc(F)cc(Cl)c2)ccc2c1[C@@H](O)CS2(=O)=O` [Compound 112, (3R)-5-(3-chloro-5-fluoro-phenoxy)-3-hydroxy-1,1-dioxo-2,3-dihydrobenzothiophene-4-carbonitrile], for which the IC50 in experiment [1] (setting [3]) came out at 46.5 nM. Further, the concentration for a half-maximal effect (EC50) in experiment [2] (setting [4]) was determined as 226 nM.

On to `N#Cc1c(Oc2cc(F)cc(Cl)c2)ccc2c1C(O)C(F)(F)S2(=O)=O` (stereo not shown) [Compound 120, 5-(3-chloro-5-fluorophenoxy)-2,2-difluoro-3-hydroxy-2,3-dihydrobenzo[b]thiophene-4-carbonitrile 1,1-dioxide], for which, in experiment [1] (setting [5]), the 50% inhibitory concentration (IC50) stood at 45 nM. Moreover, the concentration giving a half-maximal response (EC50) in experiment [2] was 4170 nM.

In the case of `NC1c2cc(Oc3cc(F)cc(Cl)c3)ccc2S(=O)(=O)C1(F)F` (stereo not shown) [Compound 122, 3-Amino-5-(3-chloro-5-fluorophenoxy)-2,2-difluoro-2,3-dihydrobenzo[b]thiophene 1,1-dioxide], the IC50 in experiment [1] (setting [3]) was 200 nM. In addition, in experiment [2] (setting [4]), the EC50 was 3720 nM.

On to `Cc1c(Oc2cc(F)cc(Cl)c2)ccc2c1C(O)C(F)(F)S2(=O)=O` (stereo not shown) [Compound 123, 5-(3-Chloro-5-fluorophenoxy)-2,2-difluoro-3-hydroxy-4-methyl-2,3-dihydrobenzo[b]thiophene 1,1-dioxide], for which half-maximal inhibition in experiment [1] (setting [5]) (IC50) required 15 nM. The EC50 in experiment [2] came to 449 nM.

Consider `O=S1(=O)CC(O)c2c1ccc(Oc1cc(F)cc(Cl)c1)c2C(F)F` (stereo not shown) [Compound 125, 5-(3-Chloro-5-fluorophenoxy)-4-(difluoromethyl)-3-hydroxy-2,3-dihydrobenzo[b]thiophene 1,1-dioxide], for which the IC50 in experiment [1] (setting [3]) worked out at 100 nM. Further, in experiment [2] (setting [4]), the EC50 came to 725 nM.

`NC1CS(=O)(=O)c2ccc(Oc3cc(F)cc(Cl)c3)c(C(F)F)c21` (stereo not shown) [Compound 127, 3-Amino-5-(3-chloro-5-fluorophenoxy)-4-(difluoromethyl)-2,3-dihydrobenzo[b]thiophene 1,1-dioxide]: in experiment [1] (setting [3]), the IC50 was found to be 7880 nM. For the same compound, the EC50 in experiment [2] (setting [4]) amounted to 6890 nM.

As for `O=S1(=O)CC(O)c2c1ccc(Oc1cc(F)cc(F)c1)c2C(F)F` (stereo not shown) [Compound 134, 4-(Difluoromethyl)-5-(3,5-difluorophenoxy)-3-hydroxy-2,3-dihydrobenzo[b]thiophene 1,1-dioxide], in experiment [1] (setting [3]), the IC50 is 77 nM. Besides, the EC50 in experiment [2] (setting [4]) stood at 718 nM.

`[2H]C1(O)c2c(ccc(Oc3cc(F)cc(Cl)c3)c2C(F)F)S(=O)(=O)C1(F)F` (stereo not shown) [Compound 135, 5-(3-Chloro-5-fluorophenoxy)-4-(difluoromethyl)-2,2-difluoro-3-hydroxy-2,3-dihydrobenzo[b]thiophene 1,1-dioxide-3-d]: in experiment [1] (setting [5]), the IC50 was less than 5 nM. Moreover, the EC50 in experiment [2] (786-O-Hif-Luc cells, about 24 hours) stood at 10 nM.

In general, IC50 refers to the concentration needed to halve the response being measured. A word on the EC50: it is the midpoint of the concentration-response curve.

For the origin of these results see patent US10098878B2, “HIF-2α inhibitors for treating iron overload disorders” (The Board of Regents of the University of Texas System, priority 2014, dated 2018).
